Test results reported in the supplement of paper PMC11061612.

Columns and labels:
[1] = system: SUP-B15 (B-Lymphoblastic Leukemia); assay: Bliss excess, mean over the matrix (fraction); higher = more synergy
Procedure, shortened: (§1)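 Bliss excess equals the observed combination effect minus the expected value EA + EB − EA·EB, where EA and EB are the effects of each agent alone. Combination Emax is the second-highest inhibition within the matrix. Inhibition was scaled from CellTiter-Glo 2.0 luminescence, with 0 set by vehicle wells and 1 by blank wells, after 72 hours of two-drug dosing of cells plated in 1536-well plates.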

[2] = system: JHH-4 (Hepatocellular Carcinoma); assay: as above
Procedure, shortened: as §1

[3] = system: MOLM-13 (Acute Myeloid Leukemia); assay: as above
Procedure, shortened: as §1

[4] = system: HCC1187 (Breast Carcinoma); assay: as above
Procedure, shortened: as §1

[5] = system: KP-3 (Pancreatic Carcinoma); assay: as above
Procedure, shortened: as §1

[6] = system: KY821 (Acute Myeloid Leukemia); assay: as above
Procedure, shortened: as §1

[7] = system: CHSA8926 (Chondrosarcoma); assay: as above
Procedure, shortened: as §1

[8] = system: PC-3 (Prostate Carcinoma); assay: as above
Procedure, shortened: as §1

[9] = system: IM-95 (Gastric Carcinoma); assay: as above
Procedure, shortened: as §1

[10] = system: NCI-H526 (Small Cell Lung Carcinoma); assay: as above
Procedure, shortened: as §1

[11] = system: DAN-G (Pancreatic Carcinoma); assay: as above
Procedure, shortened: as §1

[12] = system: KYSE-270 (Esophageal Squamous Cell Carcinoma); assay: as above
Procedure, shortened: as §1

G-361 (Melanoma) = assay: as above
Procedure, shortened: as §1

[13] = system: MOG-G-CCM (Low Grade Glioma); assay: as above
Procedure, shortened: as §1

[14] = system: NCI-H929 (Plasma Cell Myeloma); assay: as above
Procedure, shortened: as §1

[15] = system: MN-60 (B-Lymphoblastic Leukemia); assay: as above
Procedure, shortened: as §1

[16] = system: NCCIT (Other Solid Carcinomas); assay: as above
Procedure, shortened: as §1

SJSA-1 (Osteosarcoma) = assay: as above
Procedure, shortened: as §1

M059J (Glioblastoma) = assay: as above
Procedure, shortened: as §1

[17] = system: KU812 (Chronic Myelogenous Leukemia); assay: combination Emax (second highest fraction inhibited in the dose matrix, 72 h); higher = more inhibition; extreme values may be limits of the assay
Procedure, shortened: as §1

Compound | Bliss excess [1] | Bliss excess [2] | Bliss excess [3] | Bliss excess [4] | Bliss excess [5] | Bliss excess [6] | Bliss excess [7] | Bliss excess [8] | Bliss excess [9] | Bliss excess [10] | Bliss excess [11] | Bliss excess [12] | Bliss excess (G-361 (Melanoma)) | Bliss excess [13] | Bliss excess [14] | Bliss excess [15] | Bliss excess [16] | Bliss excess (SJSA-1 (Osteosarcoma)) | Bliss excess (M059J (Glioblastoma)) | combination Emax [17]
COc1cccc(OCCCN)c1-c1cc(Nc2cnc(C#N)cn2)n[nH]1 [Prexasertib] + C=CCn1c(=O)c2cnc(Nc3ccc(N4CCN(C)CC4)cc3)nc2n1-c1cccc(C(C)(C)O)n1 [AZD1775] (first compound max 1 µM, partner max 1 µM) | 0.0224 | 0.0703 | 0.036 | 0.102 | -0.0138 | 0.063 | -0.0416 | 0.0469 | 0.0876 | 0.0502 | -0.0093 | 0.217 | 0.0806 | 0.0748 | 0.15 | 0.0534 | 0.0561 | -0.0243 | 0.178 | 0.819
CN(C)CCCOc1ccc(-c2ccc3ncc4c(c3c2)n(C2CCOCC2)c(=O)n4C)cn1 [AZD0156] + C=CCn1c(=O)c2cnc(Nc3ccc(N4CCN(C)CC4)cc3)nc2n1-c1cccc(C(C)(C)O)n1 [AZD1775] (first compound max 1 µM, partner max 1 µM) | 0.0282 | -0.0065 | -0.0885 | -0.0117 | -0.0212 | -0.0505 | -0.106 | -0.0501 | -0.0366 | -0.0258 | -0.0064 | 0.0314 | -0.0556 | -0.0193 | -0.0464 | 0.0193 | 0.0278 | -0.0674 | -0.11 | 0.789
CC1(C)CCC(CN2CCN(c3ccc(C(=O)NS(=O)(=O)c4ccc(NCC5CCOCC5)c([N+](=O)[O-])c4)c(Oc4cnc5[nH]ccc5c4)c3)CC2)=C(c2ccc(Cl)cc2)C1 [Venetoclax] + CCN(CCO)CCCOc1ccc2c(Nc3cc(CC(=O)Nc4cccc(F)c4)[nH]n3)ncnc2c1 [AZD2811] (first compound max 1 µM, 7x7, partner max 1 µM) | 0.0132 | -0.0152 | 0.0626 | -0.0165 | -0.0316 | 0.002 | 0.0042 | -0.0668 | 0.104 | 0.138 | -0.0106 | -0.0072 | -0.0163 | -0.0061 | 0.101 | -0.0927 | 0.0139 | -0.0214 | -0.0687 | 0.65
CCc1c2c(nc3ccc(O)cc13)-c1cc3c(c(=O)n1C2)COC(=O)[C@]3(O)CC [SN-38] + CN(C)CCCOc1ccc(-c2ccc3ncc4c(c3c2)n(C2CCOCC2)c(=O)n4C)cn1 [AZD0156] (first compound max 0.3 µM, 7x7, partner max 1 µM) | -0.0408 | 0.0443 | 0.0493 | -0.0347 | -0.0372 | 0.055 | -0.0646 | -0.0306 | 0.0208 | 0.0215 | 0.0626 | -0.0393 | 0.0105 | 0.0143 | -0.089 | 0.0279 | 0.0163 | -0.0469 | -0.0104 | 0.72
CN(CCO)CC[C@H](CSc1ccccc1)Nc1ccc(S(=O)(=O)NC(=O)c2ccc(N3CCC([C@@H](O)c4ccccc4-c4ccc(Cl)cc4)CC3)cc2)cc1S(=O)(=O)C(F)(F)F [AZD4320] + CCN(CCO)CCCOc1ccc2c(Nc3cc(CC(=O)Nc4cccc(F)c4)[nH]n3)ncnc2c1 [AZD2811] (first compound max 1 µM, 7x7, partner max 1 µM) | 0.0255 | -0.0226 | 0.0171 | -0.0032 | -0.0476 | 0.162 | 0.0873 | -0.0127 | 0.134 | 0.105 | 0.0038 | -0.0072 | 0.0679 | 0.0683 | -0.0119 | -0.0231 | 0.0034 | -0.0059 | -0.004 | 0.885
C[C@@H]1COCCN1c1cc(C2([S@](C)(=N)=O)CC2)nc(-c2ccnc3[nH]ccc23)n1 [AZD6738] + O=C(c1cc(Cc2n[nH]c(=O)c3ccccc23)ccc1F)N1CCN(C(=O)C2CC2)CC1 [Olaparib] (first compound max 10 µM, 7x7, partner max 10 µM) | -0.0608 | -0.0325 | -0.0526 | 0.0586 | 0.0143 | -0.0521 | 0.01 | -0.0095 | 0.031 | -0.0072 | -0.0051 | -0.013 | -0.0052 | 0.0005 | -0.0942 | -0.042 | 0.0227 | -0.0371 | 0.0113 | 0.806
CC1(C)CCC(CN2CCN(c3ccc(C(=O)NS(=O)(=O)c4ccc(NCC5CCOCC5)c([N+](=O)[O-])c4)c(Oc4cnc5[nH]ccc5c4)c3)CC2)=C(c2ccc(Cl)cc2)C1 [Venetoclax] + CN(C)CCCOc1ccc(-c2ccc3ncc4c(c3c2)n(C2CCOCC2)c(=O)n4C)cn1 [AZD0156] (first compound max 1 µM, 7x7, partner max 1 µM) | -0.0392 | -0.0078 | -0.126 | -0.0071 | -0.042 | -0.0104 | -0.0249 | -0.0363 | -0.0016 | 0.0393 | -0.0268 | 0.0107 | -0.0123 | -0.0198 | 0.0294 | -0.0045 | 0.0086 | -0.0358 | -0.0173 | 0.403
Cc1c2c(nn1C)CSCc1cc(n(C)n1)CSc1cc(c3ccccc3c1)OCCCc1c(C(=O)O)n(C)c3c-2c(Cl)ccc13 [AZD5991] + C1CN(CCC1(C(=O)N[C@@H](CCO)C2=CC=C(C=C2)Cl)N)C3=NC=NC4=C3C=CN4 [Capivasertib] (first compound max 1 µM, 7x7, partner max 3 µM) | -0.0025 | 0.0018 | -0.002 | -0.0023 | -0.0102 | -0.0471 | 0.0131 | -0.0404 | -0.0384 | 0.0139 | -0.0535 | 0.0421 | -0.0055 | -0.0178 | -0.0168 | 0.0165 | 0.076 | -0.0248 | -0.101 | 0.858
COc1nnc2ccc(N3CCC(c4ccc(OCCN5CCN(C)C(=O)[C@H]5C)cc4)CC3)nn12 [AZD5153] + C[C@@H]1COCCN1C2=NC(=NC(=C2)C3(CC3)[S@](=N)(=O)C)C4=C5C=CNC5=NC=C4 [AZD6738] (first compound max 1 µM, 7x7, partner max 10 µM) | -0.012 | 0.134 | -0.0068 | 0.0265 | 0.0527 | -0.0196 | 0.0437 | 0.0034 | 0.0268 | -0.044 | 0.0374 | -0.0544 | -0.0191 | -0.0378 | -0.0817 | -0.0638 | -0.0702 | -0.0398 | -0.0647 | 0.963
Cc1c2c(nn1C)CSCc1cc(n(C)n1)CSc1cc(c3ccccc3c1)OCCCc1c(C(=O)O)n(C)c3c-2c(Cl)ccc13 [AZD5991] + C=CCn1c(=O)c2cnc(Nc3ccc(N4CCN(C)CC4)cc3)nc2n1-c1cccc(C(C)(C)O)n1 [AZD1775] (first compound max 1 µM, partner max 1 µM) | 0.0171 | 0.0308 | -0.0021 | -0.0342 | 0.0154 | -0.0329 | -0.0155 | 0.0111 | 0.0201 | -0.0063 | 0.0424 | 0.013 | 0.0513 | -0.0287 | 0.0023 | -0.0077 | -0.0113 | 0.0115 | -0.0191 | 0.885
CN(C)CCCOc1ccc(-c2ccc3ncc4c(c3c2)n(C2CCOCC2)c(=O)n4C)cn1 [AZD0156] + O=C(c1cc(Cc2n[nH]c(=O)c3ccccc23)ccc1F)N1CCN(C(=O)C2CC2)CC1 [Olaparib] (first compound max 3 µM, partner max 3 µM) | -0.0159 | -0.0166 | 0.21 | 0.0813 | -0.0305 | 0.0829 | -0.0022 | -0.0088 | -0.0093 | 0.167 | 0.0824 | 0.0509 | 0.0857 | 0.0005 | 0.016 | -0.0615 | 0.0093 | 0.017 | 0.0304 | 0.64
CC(=O)c1c(C)c2cnc(Nc3ccc(N4CCNCC4)cn3)nc2n(C2CCCC2)c1=O [Palbociclib] + Cn1cnc2c(F)c(Nc3ccc(Br)cc3Cl)c(C(=O)NOCCO)cc21 [Selumetinib] (first compound max 10 µM, 7x7, partner max 10 µM) | 0.0147 | -0.0336 | 0.0262 | -0.0142 | -0.0328 | 0.0803 | -0.0697 | -0.0627 | 0.0356 | -0.0213 | -0.0077 | -0.0512 | -0.0785 | -0.0511 | 0.0643 | -0.0405 | -0.0291 | -0.038 | -0.0441 | 0.904
CCN(CCO)CCCOc1ccc2c(Nc3cc(CC(=O)Nc4cccc(F)c4)[nH]n3)ncnc2c1 [AZD2811] + O=C(c1cc(Cc2n[nH]c(=O)c3ccccc23)ccc1F)N1CCN(C(=O)C2CC2)CC1 [Olaparib] (first compound max 1 µM, 7x7, partner max 10 µM) | -0.0227 | -0.0293 | -0.0094 | -0.0668 | -0.0484 | 0.0512 | 0.0124 | -0.0231 | 0.0087 | 0.0486 | 0.0092 | 0.0212 | -0.0295 | -0.041 | 0.0305 | -0.0206 | -0.0195 | -0.0232 | -0.0213 | 0.678
CN(CCO)CC[C@H](CSc1ccccc1)Nc1ccc(S(=O)(=O)NC(=O)c2ccc(N3CCC([C@@H](O)c4ccccc4-c4ccc(Cl)cc4)CC3)cc2)cc1S(=O)(=O)C(F)(F)F [AZD4320] + C1CN(CCC1(C(=O)N[C@@H](CCO)C2=CC=C(C=C2)Cl)N)C3=NC=NC4=C3C=CN4 [Capivasertib] (first compound max 1 µM, 7x7, partner max 3 µM) | -0.0203 | -0.0411 | -0.0169 | -0.0276 | -0.0438 | 0.0157 | -0.0059 | -0.053 | -0.0545 | -0.0075 | -0.0354 | -0.0441 | -0.0244 | -0.0525 | -0.0088 | -0.0157 | 0.0224 | 0.0243 | -0.0113 | 0.737
